Values of other authors in patent publication US20110223258A1 (priority 2008, published 2011).

Details: aqueous solution

For `O=P([O-])(O)O.O=P([O-])(O)O.O=P([O-])(O)O.[Fe+3]` [Fe(H2PO4)3, iron(III) dihydrogen phosphate], the Stability in solution is given as “decomposes in the solution as a result of hydrolysis”.
